“Also recorded” adds a separate entry of the source.
Assays:
Assay type in all cases: cell-based
AR V7 = molecular target: T1, AR V7 (Homo sapiens, UniProt P10275); experiment: Live-cell imaging of AR puncta (LLPS) in LNCaP cells, AR V7-mEGFP; parameters: expressed in transfected cells; host or cells: LNCaP; conditions: 10 μM compound, no DHT
T1 sequence (P10275 1-644 isoform P10275-3): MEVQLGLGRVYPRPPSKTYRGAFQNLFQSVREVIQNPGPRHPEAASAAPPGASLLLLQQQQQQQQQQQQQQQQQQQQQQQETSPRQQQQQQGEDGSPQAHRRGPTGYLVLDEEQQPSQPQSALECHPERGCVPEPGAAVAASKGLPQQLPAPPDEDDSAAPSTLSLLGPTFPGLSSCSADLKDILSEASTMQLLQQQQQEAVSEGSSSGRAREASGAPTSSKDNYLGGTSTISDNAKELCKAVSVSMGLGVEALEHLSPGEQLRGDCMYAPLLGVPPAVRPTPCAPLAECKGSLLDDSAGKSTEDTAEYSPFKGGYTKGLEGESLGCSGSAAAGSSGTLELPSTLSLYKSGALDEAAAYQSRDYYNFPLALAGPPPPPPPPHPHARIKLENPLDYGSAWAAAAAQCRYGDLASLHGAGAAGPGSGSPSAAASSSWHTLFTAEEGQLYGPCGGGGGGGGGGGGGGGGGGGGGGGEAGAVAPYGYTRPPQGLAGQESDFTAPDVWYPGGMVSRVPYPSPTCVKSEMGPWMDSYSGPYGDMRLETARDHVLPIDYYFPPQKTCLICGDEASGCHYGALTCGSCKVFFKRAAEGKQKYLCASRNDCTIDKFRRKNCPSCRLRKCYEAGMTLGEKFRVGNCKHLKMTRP
Procedure: (§1) Cells were grown on 24-well glass bottom plate (Cellvis, P24-1.5H-N) and images were taken with the Leica TCS SP8 confocal microscopy system using a 100× oil objective (NA=1.4). Cells were imaged on a heated stage (37° C.) and supplemented with warmed (37° C.) humidified air. The microscope was enclosed in an incubation chamber heated to 37° C.
(§2) For compounds treatment assay, LNCaP cells were transfected with an expression vector for AR (AR or AR F877L/T878A)-mEGFP using steroid hormone-free and phenol red-free RPMI media for 24 hours before compound treatment. After 10 μM compounds treatment for 3 hour, LNCaP cells were added with 1 nM DHT. For ligand-independent AR V7-mEGFP expressing LNCaP cells, starvation step is skipped and compounds were added 12 hours after transfection. The final concentration of DMSO was 0.1%. Cells were subjected to microscopic observation every 30 mins after DHT/compounds were added.
(§3) Data was analyzed by images collected from 100 representative fields in each group. The spots quantification was performed based on the area and intensity of the spots through green (AR-mEGFP) channel. Fluorescent images were processed and assembled into figures using LAS X (Leica) and Fiji.
(§4) After 10 μM compounds treatment for 3 hour, LNCaP cells were added with 1 nM DHT. […]

AR F877L/T878A = molecular target: T2, AR F877L/T878A (Homo sapiens, UniProt P10275, F877L/T878A); experiment: Live-cell imaging of AR puncta (LLPS) in LNCaP cells, AR F877L/T878A-mEGFP; conditions: 10 μM compound, 1 nM DHT
T2 construct: expressed in transfected cells; host or cells: LNCaP
T2 sequence (P10275 1-920 F877L/T878A): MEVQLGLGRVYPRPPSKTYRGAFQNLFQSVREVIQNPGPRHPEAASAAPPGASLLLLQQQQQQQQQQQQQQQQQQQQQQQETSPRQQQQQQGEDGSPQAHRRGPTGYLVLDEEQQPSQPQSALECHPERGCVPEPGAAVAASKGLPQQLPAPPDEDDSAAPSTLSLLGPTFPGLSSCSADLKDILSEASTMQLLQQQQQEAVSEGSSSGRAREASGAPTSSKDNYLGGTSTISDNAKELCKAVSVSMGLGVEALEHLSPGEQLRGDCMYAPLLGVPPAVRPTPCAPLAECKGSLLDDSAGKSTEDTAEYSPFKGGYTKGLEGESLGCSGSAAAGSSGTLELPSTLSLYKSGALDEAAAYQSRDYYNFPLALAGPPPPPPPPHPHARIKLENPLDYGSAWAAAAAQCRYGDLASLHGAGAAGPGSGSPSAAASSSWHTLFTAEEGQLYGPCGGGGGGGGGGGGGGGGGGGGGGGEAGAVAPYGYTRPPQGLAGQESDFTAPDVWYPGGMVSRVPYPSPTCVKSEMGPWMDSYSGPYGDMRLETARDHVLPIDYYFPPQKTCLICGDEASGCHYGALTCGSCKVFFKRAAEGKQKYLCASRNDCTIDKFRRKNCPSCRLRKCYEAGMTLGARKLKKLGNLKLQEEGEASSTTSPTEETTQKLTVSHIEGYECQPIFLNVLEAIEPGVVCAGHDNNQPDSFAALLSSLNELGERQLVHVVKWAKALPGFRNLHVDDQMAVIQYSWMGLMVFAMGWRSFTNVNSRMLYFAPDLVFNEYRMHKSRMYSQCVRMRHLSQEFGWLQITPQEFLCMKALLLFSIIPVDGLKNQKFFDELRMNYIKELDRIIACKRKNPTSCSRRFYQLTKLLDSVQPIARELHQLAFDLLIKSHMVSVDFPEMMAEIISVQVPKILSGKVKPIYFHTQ
Procedure: as §1, §2, §3, §4

VCaP cells = experiment: Cell proliferation assay (CellTiter-Glo), VCaP; conditions: Homo sapiens, 96 h, 4 days, read-out: VCaP IC50 AR-positive, AR-V7 positive (cell proliferation)
Procedure: To evaluate the effect of exemplary compounds on proliferation of AR/AR-V7-dependent prostate cancer cells, cell viability assay was performed in LNCaP (AR-positive), 22Rv1 (AR-positive; AR-V7 positive), VCaP (AR-positive; AR-V7 positive), and DU145 (AR-negative) cells, respectively.
LNCaP cells were seeded in charcoal stripped FBS/phenol red-free RPMI medium in 96-well plates for 24 h before pretreating for 1 h with test compounds prior to addition of 0.2 nM DHT for 4 days. 22Rv1 or VCaP cells were cultured in charcoal stripped FBS/phenol red-free RPMI medium for 24 h before addition of test compounds for 4 days. DU145 cells were seeded in complete medium for 24 h before addition of test compounds for 4 days. Cell proliferation was measured with CellTiter-Glo® Luminescent Cell Viability Assay (Promega). In LNCaP cells, DHT-dependent cell growth is calculated by measuring the difference between vehicle control (DMSO) cells treated with or without 0.2 nM DHT. The IC50 values were determined using the four parameter fit via GraphPad Prism graphing software.

IC50 (VCaP cells) [µM]	Structure (SMILES)	puncta formation / LLPS of AR V7 (AR V7)	puncta formation / LLPS of enzalutamide-resistant AR mutant F877L/T878A (AR F877L/T878A)
	CC(C)(c1ccc(C#Cc2cnc(NS(C)(=O)=O)nc2)cc1)c1cc(Cl)c(OCCCl)c(C#N)c1 [Compound 60, N-(5-((4-(2-(3-chloro-4-(2-chloroethoxy)-5-cyanophenyl)propan-2-yl)phenyl)ethynyl)pyrimidin-2-yl)methanesulfonamide]	could suppress the phase separation; also recorded: abolished the puncta formation; also recorded: significantly impaired the LLPS	could suppress the phase separation; also recorded: abolished the puncta formation; also recorded: impaired the LLPS
> 20	CC(C)(c1ccc(OCc2ccnc(NS(C)(=O)=O)n2)cc1)c1cc(Cl)c(OCCCl)c(C#N)c1 [Compound AA, N-(4-((4-(2-(3-chloro-4-(2-chloroethoxy)-5-cyanophenyl)propan-2-yl)phenoxy)methyl)pyrimidin-2-yl) methane sulfonamide, reference compound]		

Reference: US20240150301A1, “METHODS OF MODULATING ANDROGEN RECEPTOR CONDENSATES” (ETERN BIOPHARMA (SHANGHAI) CO., LTD., priority 2021, published 2024)
